Reference: patent publication US7183267B2, “β-lactamase inhibitors and methods of use thereof” (priority 2003, dated 2007)
Where two headings read alike, the source gives them in different places.

What was measured:
β-lactamase mutant E104K = β-lactamase mutant E104K (Escherichia coli, UniProt P62593, E102K); type: biochemical; conditions: number higher than 1 reflects a loss of potency against mutant
Experimental: (§1) The inhibition of TEM-1 β-lactamase was determined spectrophotometrically. B-lactamase activity was followed by measuring the hydrolysis of nitrocefin, [3-(2,4-dinitrostyryl)-(6R, 7R)-7-(2-thienylacetamido)-ceph-3-em-4-carboxylic acid, E-isomer], (Calbiochem, San Diego, Calif., USA) at 486 nm. Inhibition assays were performed at 25° C. in 50 mM sodium phosphate, 5% DMSO, pH 7.0. […] Inhibitor was added to the enzyme and incubated for ten minutes before the addition of substrate. Inhibition constants (Ki) for the inhibitors are obtained at the desired temperature and solvent conditions by measuring the rate of substrate hydrolysis at increasing amounts of inhibitors.
(§2) Three of the most important mutations are M69I, R244S and E104K.

β-lactamase mutant M69I = β-lactamase mutant M69I (Escherichia coli, UniProt P62593, M67I); type: biochemical; conditions: number higher than 1 reflects a loss of potency against mutant
Experimental: as §1, §2

β-lactamase mutant R244S = β-lactamase mutant R244S (Escherichia coli, UniProt P62593, R241S); type: biochemical; conditions: number higher than 1 reflects a loss of potency against mutant
Experimental: as §1, §2

TEM-1 β-lactamase [1] = target: T1, TEM-1 β-lactamase (Escherichia coli, UniProt P62593); test: TEM-1 β-lactamase inhibition assay (nitrocefin hydrolysis, 486 nm); type: biochemical
Experimental: as §1
(§3) The competitive inhibition of β-lactamase was determined spectrophotometrically using a Varian (Walnut Creek, Calif.) Cary 100 UV-Visible spectrophotometer. β-lactamase activity was followed by measuring the hydrolysis of nitrocefin, [3-(2,4-dinitrostyryl)-(6R, 7R)-7-(2-thienylacetamido)-ceph-3-em-4-carboxylic acid, E-isomer], (Calbiochem, San Diego, Calif.) at 486 nm. Inhibition assays were performed at 25° C. in 50 mM sodium phosphate, 5% DMSO, pH 7.0. […] Penicillin G (Sigma, St. Louis, Mo.) was also used as a substrate to determine KM and kcat.
(§4) Inhibitor was added to protein and incubated for ten minutes before the addition of substrate. Inhibition constants were determined by measuring the loss of P-lactamase activity with increasing inhibitor concentrations and fitting the data to standard equations for competitive inhibition.
(§5) These methods can also be used to express and assay recombinant TEM-1 variant of β-lactamase.

AmpC β-lactamase [2] = target: T2, AmpC β-lactamase (Escherichia coli, UniProt P00811); test: AmpC β-lactamase competitive inhibition assay (nitrocefin hydrolysis); type: biochemical
T2 construct: made in house; host or cells: E. coli BL21 (DE3)
Experimental: The gene for AmpC β-lactamase (accession number P00811) was obtained from Escherichia coli K12 strain W3110 (American Type Culture Collection, Rockville Md.). E. coli was grown and plasmid (F-lacIq lacPL8 ampC::lambdacI+) was isolated via Qiagen (Valencia, Calif.) mini prep. The gene for AmpC was amplified in two pieces via polymerase chain reaction, ligated and purified by agarose gel electrophoresis. The ligated gene was inserted into a pET200 vector via a TOPO reaction (Invitrogen, Carlsbad, Calif.).
BL21 (DE3) (Invitrogen) cells were transformed by heat-shock with the prepared plasmid. These cells were grown to an OD600 of 0.8 at 37° C. Isopropylthiogalactoside (IPTG) was added to 1 mM, incubation temperature decreased to 25° C. and the cells were grown for an additional 18 hours. After 18 hours, the E. coli was pelleted by centrifugation, and discarded. The growth media was concentrated and dialyzed versus 100 mM Tris, pH 7.0. This solution was run through an equilibrated Q-resin column, and washed with excess 100 mM Tris, pH 7.0.
as §3, §4

AmpC β-lactamase [3] = target: T2, AmpC β-lactamase; conditions: binding to AmpC; ITC
Experimental: (§6) Isothermal titration calorimetry was performed on a high-precision VP-ITC titration calorimeter (Microcal Inc., Northampton, Mass.). β-Lactamase solutions were titrated with inhibitors in 50 mM sodium phosphate, 2% DMSO, pH 7.0, with β-lactamase concentrations ranging from 15 to 25 μM and inhibitor concentrations ranging from 300 to 1000 μM. The heat evolved from each injection was obtained by integrating the calorimetric signal. Heat of binding was obtained as the difference between the heat of reaction and the heat of inhibitor dilution. Data were analyzed using Origin 7.0 (OriginLab Corporation, Northampton, Mass.).
Isothermal titration calorimetry was undertaken to determine the thermodynamic characteristics of binding to AmpC β-lactamase.

TEM-1 β-lactamase [4] = target: T1, TEM-1 β-lactamase; test: Isothermal titration calorimetry, binding to TEM-1 β-lactamase (Example 17); conditions: ITC
Experimental: as §6, §5
Also shown are the results obtained for β-lactamase variant TEM-1.

[5] = Ki, 25° C., 50 mM sodium phosphate, 5% DMSO, pH 7.0, enzyme 5 nM, nitrocefin 167 μM

O=C(O)[C@H]1/C(=C/CO)O[C@@H]2CC(=O)N21 [Clavulanic, clavulanic acid, reference compound]
Loss of potency: ratio of the inhibitory constant between mutant and wild type (Potencywt/Potencymutant), E104K (β-lactamase mutant E104K): 0.67
Loss of potency: ratio of the inhibitory constant between mutant and wild type (Potencywt/Potencymutant), M69I (β-lactamase mutant M69I): 163
Loss of potency: ratio of the inhibitory constant between mutant and wild type (Potencywt/Potencymutant), R244S (β-lactamase mutant R244S): 38

O=C(Oc1ccc2sc(=O)oc2c1)c1cc(B(O)O)cc([N+](=O)[O-])c1 [Compound (1f), 3-(2-OxO-benzo[1,3]oxathiol-6-oxycarbonyl)-5-nitrophenylboronic acid]
Ki (TEM-1 β-lactamase [1]; [5]): 33 ± 4 µM
Loss of potency: ratio of the inhibitory constant between mutant and wild type (Potencywt/Potencymutant), E104K (β-lactamase mutant E104K): 0.37
Loss of potency: ratio of the inhibitory constant between mutant and wild type (Potencywt/Potencymutant), M69I (β-lactamase mutant M69I): 0.47
Loss of potency: ratio of the inhibitory constant between mutant and wild type (Potencywt/Potencymutant), R244S (β-lactamase mutant R244S): 0.42

CCOC(=O)c1ccccc1OC(=O)c1cc(B(O)O)cc([N+](=O)[O-])c1 [Compound (1i), 3-(2-Ethoxycarbonyl-phenoxycarbonyl)-5-nitrophenylboronic acid]
Ki (TEM-1 β-lactamase [1]; [5]): 101 ± 4 µM
Loss of potency: ratio of the inhibitory constant between mutant and wild type (Potencywt/Potencymutant), E104K (β-lactamase mutant E104K): 0.36
Loss of potency: ratio of the inhibitory constant between mutant and wild type (Potencywt/Potencymutant), M69I (β-lactamase mutant M69I): 0.50
Loss of potency: ratio of the inhibitory constant between mutant and wild type (Potencywt/Potencymutant), R244S (β-lactamase mutant R244S): 0.34

O=C(Oc1ccc(OC(=O)c2cc(B(O)O)cc([N+](=O)[O-])c2)c(Cl)c1)c1cc(B(O)O)cc([N+](=O)[O-])c1 [Compound (2b), 3-Borono-5-nitrobenzoic acid 2-chloro-1,4-phenylene ester]
Ki (AmpC β-lactamase [2]): 2.92 µM
ΔG (AmpC β-lactamase [3]): -32.37 kJ/mol
ΔH (AmpC β-lactamase [3]): -0.941 kJ/mol
−TΔS (AmpC β-lactamase [3]): -31.43 kJ/mol
ΔG (TEM-1 β-lactamase [4]): -32.9 kJ/mol
ΔH (TEM-1 β-lactamase [4]): -2.18 kJ/mol
−TΔS (TEM-1 β-lactamase [4]): -30.73 kJ/mol
Ki (TEM-1 β-lactamase [1]; [5]): 15.2 ± 1.4 µM
Ki (TEM-1 β-lactamase [1]; Ki, TEM-1 β-lactamase): 15.2 µM

O=C(Oc1c(Cl)c(Cl)c(OC(=O)c2cc(B(O)O)cc([N+](=O)[O-])c2)c(Cl)c1Cl)c1cc(B(O)O)cc([N+](=O)[O-])c1 [Compound (2c)]
Ki (AmpC β-lactamase [2]): 3.68 µM
ΔG (AmpC β-lactamase [3]): -29.77 kJ/mol
ΔH (AmpC β-lactamase [3]): -1.98 kJ/mol
−TΔS (AmpC β-lactamase [3]): -27.79 kJ/mol
ΔG (TEM-1 β-lactamase [4]): -24.33 kJ/mol
ΔH (TEM-1 β-lactamase [4]): -6.895 kJ/mol
−TΔS (TEM-1 β-lactamase [4]): -17.43 kJ/mol
Ki (TEM-1 β-lactamase [1]; Ki, TEM-1 β-lactamase): 6.7 µM

CC(C)(C)c1cc(OC(=O)c2cc(B(O)O)cc([N+](=O)[O-])c2)ccc1OC(=O)c1cc(B(O)O)cc([N+](=O)[O-])c1 [Compound (2d)]
Ki (AmpC β-lactamase [2]): 6.27 µM
ΔG (AmpC β-lactamase [3]): -29.7 kJ/mol
ΔH (AmpC β-lactamase [3]): 0 kJ/mol
−TΔS (AmpC β-lactamase [3]): -29.7 kJ/mol
ΔG (TEM-1 β-lactamase [4]): -27.25 kJ/mol
ΔH (TEM-1 β-lactamase [4]): -3.59 kJ/mol
−TΔS (TEM-1 β-lactamase [4]): -23.66 kJ/mol
Ki (TEM-1 β-lactamase [1]; Ki, TEM-1 β-lactamase): 10.9 µM

O=C(OCc1cccc(B(O)O)c1)c1cc(B(O)O)cc([N+](=O)[O-])c1 [Compound (3d), 3-(3-Boronobenzyloxycarbonyl)-5-nitrophenylboronic acid]
Ki (AmpC β-lactamase [2]): 1.03 µM
ΔG (AmpC β-lactamase [3]): -31.14 kJ/mol
ΔH (AmpC β-lactamase [3]): -65.425 kJ/mol
−TΔS (AmpC β-lactamase [3]): 34.29 kJ/mol
Ki (TEM-1 β-lactamase [1]; [5]): 55.7 ± 4.3 µM

O=C(Oc1cccc(B(O)O)c1)c1c(Cl)cccc1Cl [Compound (6a), 3-(2,6-Dichlorophenylcarbonyloxy)phenyl boronic acid]
Ki (AmpC β-lactamase [2]): 1.53 µM
ΔG (AmpC β-lactamase [3]): -32.46 kJ/mol
ΔH (AmpC β-lactamase [3]): -27.35 kJ/mol
−TΔS (AmpC β-lactamase [3]): -5.1 kJ/mol
Ki (TEM-1 β-lactamase [1]; [5]): 28 ± 2.1 µM

O=C(Oc1ccc(OC(=O)c2ccc(B(O)O)cc2F)c(Cl)c1)c1ccc(B(O)O)cc1F [Compound (7a), 4-Borono-2-fluorobenzoic acid 2-chloro-1,4-phenylene ester]
Ki (AmpC β-lactamase [2]): 0.873 µM
ΔG (AmpC β-lactamase [3]): -30.6 kJ/mol
ΔH (AmpC β-lactamase [3]): -41.57 kJ/mol
−TΔS (AmpC β-lactamase [3]): 10.97 kJ/mol
Ki (TEM-1 β-lactamase [1]; [5]): 122 ± 10 µM

O=C(OCc1ccccc1COC(=O)c1cc(B(O)O)cc([N+](=O)[O-])c1)c1cc(B(O)O)cc([N+](=O)[O-])c1 [Compound (10a), 3-Borono-5-nitrobenzoic acid 1,2-benzenedimethanol ester]
Ki (AmpC β-lactamase [2]): 0.457 µM
ΔG (AmpC β-lactamase [3]): -35.94 kJ/mol
ΔH (AmpC β-lactamase [3]): -17.36 kJ/mol
−TΔS (AmpC β-lactamase [3]): -18.58 kJ/mol
ΔG (TEM-1 β-lactamase [4]): -30.05 kJ/mol
ΔH (TEM-1 β-lactamase [4]): -4.11 kJ/mol
−TΔS (TEM-1 β-lactamase [4]): -25.94 kJ/mol
Ki (TEM-1 β-lactamase [1]; Ki, TEM-1 β-lactamase): 9.7 µM

O=C(Oc1cc(OC(=O)c2cc(B(O)O)cc([N+](=O)[O-])c2)cc(OC(=O)c2cc(B(O)O)cc([N+](=O)[O-])c2)c1)c1cc(B(O)O)cc([N+](=O)[O-])c1 [Compound (12a), Tris(3-borono-5-nitrobenzoic acid), 1,3,5-trihydroxybenzene ester]
Ki (AmpC β-lactamase [2]): 1.94 µM
ΔG (AmpC β-lactamase [3]): -30.25 kJ/mol
ΔH (AmpC β-lactamase [3]): -6.15 kJ/mol
−TΔS (AmpC β-lactamase [3]): -24.1 kJ/mol
ΔG (TEM-1 β-lactamase [4]): -27.06 kJ/mol
ΔH (TEM-1 β-lactamase [4]): -2.89 kJ/mol
−TΔS (TEM-1 β-lactamase [4]): -24.18 kJ/mol
Ki (TEM-1 β-lactamase [1]): 6.9 µM

O=C(OCc1ccccc1)c1cccc(B(O)O)c1 [Compound F1001]
Ki (AmpC β-lactamase [2]): 1.79 µM
ΔG (AmpC β-lactamase [3]): -28.58 kJ/mol
ΔH (AmpC β-lactamase [3]): -2.69 kJ/mol
−TΔS (AmpC β-lactamase [3]): -25.88 kJ/mol
Ki (TEM-1 β-lactamase [1]; [5]): 104 µM

CC1(C)[C@H](C(=O)O)N2C(=O)C[C@H]2S1(=O)=O [Sulbactam, sulbactam, reference compound]
Loss of potency: ratio of the inhibitory constant between mutant and wild type (Potencywt/Potencymutant), E104K (β-lactamase mutant E104K): 1
Loss of potency: ratio of the inhibitory constant between mutant and wild type (Potencywt/Potencymutant), M69I (β-lactamase mutant M69I): 15
Loss of potency: ratio of the inhibitory constant between mutant and wild type (Potencywt/Potencymutant), R244S (β-lactamase mutant R244S): 93

C[C@]1(Cn2ccnn2)[C@H](C(=O)O)N2C(=O)C[C@H]2S1(=O)=O [Tazobactam, tazobactam, reference compound]
Loss of potency: ratio of the inhibitory constant between mutant and wild type (Potencywt/Potencymutant), E104K (β-lactamase mutant E104K): 1
Loss of potency: ratio of the inhibitory constant between mutant and wild type (Potencywt/Potencymutant), M69I (β-lactamase mutant M69I): 31
Loss of potency: ratio of the inhibitory constant between mutant and wild type (Potencywt/Potencymutant), R244S (β-lactamase mutant R244S): 105
